In brackets after ≈: the same amount, converted by molar mass.
Assays:
Human alphaherpesvirus 1 [1] = test: Antiviral activity against HSV1 infected in monkey CV-1 cells assessed as inhibition of plaque formation; format: functional, organism-based; conditions: Human alphaherpesvirus 1, CV-1
Human alphaherpesvirus 1 [2] = test: Antiviral activity against HSV1 infected in human primary amnion cells assessed as inhibition of virus-induced pathogenic effect; format: functional
[3] = system: Vesicular stomatitis virus; test: Antiviral activity against VSV infected in BHK cells assessed as inhibition of plaque formation; format: functional, organism-based
[4] = Therapeutic index, ratio of MTC for human primary amnion cells to lowest drug level causing inhibition of HSV1; conditions: read-out: TI
[5] = Cytotoxicity against human primary amnion cells assessed as morphological changes by microscopic examination; format: functional
[6] = system: Human immunodeficiency virus 1; test: Antiviral activity against HIV1 infected in human H9 cells assessed inhibition of viral replication; format: functional, organism-based; conditions: Human immunodeficiency virus 1, H9
[7] = Therapeutic index, ratio of inhibition of human H9 cells to EC50 for HIV1; format: cell-based; conditions: read-out: TI
[8] = system: Human immunodeficiency virus 1; test: Antiviral activity against HIV1 infected in human MT4 cells; format: functional, organism-based; conditions: Human immunodeficiency virus 1, MT4
MT4 = test: Cytotoxicity against human MT4 cells; format: functional; conditions: read-out: CD50 (the source's name)
[9] = system: Human immunodeficiency virus; test: Antiviral activity against HIV assessed as reduction of viral protein production at 0.27 uM; format: functional; parameters: scale not given: the % may be the effect or the level left
[10] = system: Human immunodeficiency virus; test: Antiviral activity against HIV assessed as reduction of viral protein production at 0.52 uM; format: functional; parameters: scale not given: the % may be the effect or the level left
[11] = system: Human immunodeficiency virus; test: Antiviral activity against cross-resistant HIV mutant; format: functional; conditions: Human immunodeficiency virus 1; read-out: ED50 (the source's name)
Murid betaherpesvirus 1 [12] = test: Antiviral activity against Murine cytomegalovirus in mouse 3T3-L1 cells at 250 nM; format: functional; conditions: Murid betaherpesvirus 1, 3T3-L1
Sindbis virus [13] = test: Antiviral activity against Sindbis virus in mouse 3T3-L1 cells at 250 nM; format: functional
Sindbis virus [14] = test: Antiviral activity against Sindbis virus in mouse 3T3-L1 cells at 273 nM; format: functional
[15] = system: Vesicular stomatitis virus; test: Antiviral activity against VSV infected in rabbit RL-33 cells; format: functional
[16] = Cytotoxicity against rabbit RL33 cells; format: cell-based, Oryctolagus cuniculus
Murid betaherpesvirus 1 [17] = test: Antiviral activity against Murine cytomegalovirus in mouse 3T3-L1 cells at 263 nM; format: functional; conditions: Murid betaherpesvirus 1, 3T3-L1
[18] = system: Human immunodeficiency virus; test: Antiviral activity against HIV; format: functional, organism-based; conditions: Human immunodeficiency virus 1
[19] = Inhibition of human DNA polymerase alpha
Murid betaherpesvirus 1 [20] = test: Antiviral activity against Murine cytomegalovirus in mouse 3T3-L1 cells at 241 nM; format: functional; conditions: Murid betaherpesvirus 1, 3T3-L1
Sindbis virus [21] = test: Antiviral activity against Sindbis virus in mouse 3T3-L1 cells at 241 nM; format: functional

SMILES: COc1cc([C@@H]2c3cc4c(cc3[C@H](O)[C@H]3COC(=O)[C@H]23)OCO4)cc(OC)c1O
- IC50 (Human alphaherpesvirus 1 [1]): 100 nM
- Activity (Human alphaherpesvirus 1 [2]): 0.5 µM
- IC50 [3]: 250 nM
- selectivity ratio [4]: 250
- Activity [5]: >125 µM

SMILES: COc1ccc(C[C@H]2COC(=O)[C@@H]2Cc2ccc(O)c(O)c2)cc1OC
- EC50 [6]: 420 nM
- selectivity ratio [7]: 9

SMILES: COc1cc([C@@H]2c3cc4c(c(O[C@@H]5O[C@H](CO)[C@@H](O)[C@H](O)[C@H]5O)c3C[C@H]3COC(=O)[C@@H]32)OCO4)cc(OC)c1OC
- Activity (Human alphaherpesvirus 1 [2]): 17 µM
- selectivity ratio [4]: 3
- Activity [5]: 52 µM

SMILES: COc1cc([C@H]2c3c(cc(OC)c(OC)c3OC)C[C@@H](C)[C@@H]2C)cc(OC)c1OC
- EC50 [8]: 3.2 µM
- CC50 (MT4): 34 µM

SMILES: COc1cc([C@@H]2c3cc4c(cc3[C@@H](OC)[C@H]3COC(=O)[C@@H]23)OCO4)cc(OC)c1OC
- IC50 (Human alphaherpesvirus 1 [1]): 900 nM
- IC50 [3]: 2300 nM

SMILES: COc1cc([C@@H]2c3cc4c(cc3[C@H](OC)[C@H]3COC(=O)[C@H]23)OCO4)cc(OC)c1OC
- IC50 (Human alphaherpesvirus 1 [1]): 460 nM
- IC50 [3]: 930 nM

SMILES: COc1cc([C@@H]2c3cc4c(c(OC)c3C[C@H]3COC(=O)[C@@H]32)OCO4)cc(OC)c1OC
- IC50 (Human alphaherpesvirus 1 [1]): 23 nM
- IC50 [3]: 23 nM

SMILES: COc1cc([C@H]2c3c(cc(OC)c(OC)c3OC)C[C@H]3CSC[C@@H]32)cc(OC)c1OC
- EC50 [8]: 0.8 µM
- CC50 (MT4): 58 µM

SMILES: COc1cc([C@H]2c3c(cc4c(c3OC)OCO4)C[C@H]3CSC[C@@H]32)cc(OC)c1OC
- EC50 [8]: 5.1 µM
- CC50 (MT4): 163 µM

SMILES: COc1cc([C@@H]2c3cc4c(cc3C=C3COC(=O)[C@H]32)OCO4)cc(OC)c1OC
- IC50 (Human alphaherpesvirus 1 [1]): 250 nM
- IC50 [3]: 250 nM

SMILES: COC(=O)[C@@H]1C(CO)=Cc2cc3c(cc2[C@H]1c1cc(OC)c(OC)c(OC)c1)OCO3
- IC50 (Human alphaherpesvirus 1 [1]): 460 nM
- IC50 [3]: 460 nM

SMILES: COc1cc(C[C@@]2(O)C(=O)OC[C@@H]2Cc2ccc(OC)c(OC)c2)ccc1O
- Activity [9]: 60%
- Activity [10]: 60%

SMILES: COc1cc([C@@H]2c3cc4c(cc3[C@@H](OC)[C@H]3COC(=O)[C@H]23)OCO4)cc(OC)c1OC
- IC50 (Human alphaherpesvirus 1 [1]): 900 nM
- IC50 [3]: 900 nM

SMILES: COc1ccc([C@H]2c3c(cc4c(c3OC)OCO4)C[C@H]3CSC[C@@H]32)cc1OC
- EC50 [8]: 3.3 µM
- CC50 (MT4): > 840 µM

SMILES: COc1c(O)c(Br)c2c(c1OC)-c1c(c(Br)c(O)c(OC)c1OC)C[C@H](C)[C@H](C)C2
- EC50 [11]: 100 nM

SMILES: COc1c2c(cc3c1[C@H](c1ccc(OC(=O)c4ccccc4)c(O)c1)[C@H]1C(=O)OC[C@@H]1C3)OCO2
- EC50 [8]: 5.22 µM
- CC50 (MT4): > 840 µM

SMILES: COc1c(O)c(Cl)c2c(c1OC)-c1c(c(Cl)c(O)c(OC)c1OC)C[C@H](C)[C@H](C)C2
- EC50 [11]: 100 nM

SMILES: COc1cc([C@@H]2c3cc4c(c(O)c3C[C@H]3COC(=O)[C@@H]32)OCO4)cc(OC)c1O
- Activity (Human alphaherpesvirus 1 [2]): 0.05 µM
- inhibition at 0.25 µM (Murid betaherpesvirus 1 [12]): 85%
- inhibition at 0.25 µM (Sindbis virus [13]): 6%
- selectivity ratio [4]: 4000
- Activity [5]: 200 µM

SMILES: COc1cc([C@@H]2c3cc4c(cc3[C@@H](O)[C@H]3COC(=O)[C@H]23)OCO4)cc(OC)c1O [4'-DEMETHYLEPIPODOPHYLLOTOXIN]
- Activity (Human alphaherpesvirus 1 [2]): 13 µM
- selectivity ratio [4]: 1
- Activity [5]: 13 µM

SMILES: COc1cc([C@@H]2c3cc4c(cc3[C@H](O)[C@H]3COC[C@H]23)OCO4)cc(OC)c1OC [ANHYDROPODOPHYLLOL]
- Activity (Human alphaherpesvirus 1 [2]): 0.25 µM
- selectivity ratio [4]: 800
- Activity [5]: >200 µM

SMILES: COc1cc(C[C@H]2C(=O)OC[C@@H]2Cc2ccc(OC)c(OC)c2)ccc1O [ARCTIGENIN]
- EC50 [6]: 420 nM
- selectivity ratio [7]: 9
- Activity [9]: 60%
- Activity [10]: 60%

SMILES: COc1cc([C@@H]2c3cc4c(cc3[C@H](O)[C@H]3COC(=O)[C@@H]23)OCO4)cc(OC)c1OC [AXL-1717]
- Activity (Human alphaherpesvirus 1 [2]): 1.9 µM
- selectivity ratio [4]: 75
- Activity [5]: 140 µM

SMILES: COc1cc([C@@H]2c3cc4c(c(O)c3C[C@H]3COC(=O)[C@@H]32)OCO4)cc(OC)c1OC [BETA-PELTATIN A]
- Activity (Human alphaherpesvirus 1 [2]): 0.36 µM
- selectivity ratio [4]: 333
- Activity [5]: 120 µM

SMILES: COc1cc([C@@H]2c3cc4c(cc3C[C@H]3COC(=O)[C@H]32)OCO4)cc(OC)c1OC [DEOXYPICROPODOPHYLLIN]
- IC50 (Human alphaherpesvirus 1 [1]): 2000 nM
- IC50 [3]: 2000 nM

SMILES: COc1cc([C@@H]2c3cc4c(cc3C[C@H]3CSC(=O)[C@@H]32)OCO4)cc(OC)c1OC [DEOXYPODOPHYLLOTOXIN CYCLIC SULFIDE]
- Activity (Human alphaherpesvirus 1 [2]): 12 µM
- selectivity ratio [4]: 3
- Activity [5]: 37 µM

SMILES: COc1cc([C@@H]2c3cc4c(cc3C[C@H]3CC(=O)C[C@@H]32)OCO4)cc(OC)c1OC [DEOXYPODOPHYLLOTOXIN CYCLOPENTANONE]
- Activity (Human alphaherpesvirus 1 [2]): 49 µM
- selectivity ratio [4]: 2.5
- Activity [5]: 122 µM

SMILES: COc1cc([C@@H]2c3cc4c(cc3C[C@H]3COC(=O)[C@@H]32)OCO4)cc(OC)c1OC [DESOXYPODOPHYLLOTOXIN]
- IC50 (Human alphaherpesvirus 1 [1]): 25 nM
- Activity (Human alphaherpesvirus 1 [2]): 0.038 µM
- IC50 [3]: < 25 nM
- selectivity ratio [4]: 667
- Activity [5]: >25 µM

SMILES: COc1cc2c(O)c3c(c(-c4ccc5c(c4)OCO5)c2cc1OC)C(=O)OC3 [DIPHYLLIN]
- inhibition at 0.273 µM (Sindbis virus [14]): 18%
- MIC [15]: 0.16 µM (≈ 0.0609 µg/mL)
- Activity [16]: 85 µM
- inhibition at 0.263 µM (Murid betaherpesvirus 1 [17]): 11%

SMILES: COc1cc([C@@H]2c3cc4c(cc3[C@@H](OC(C)=O)[C@H]3CSC(=O)[C@H]23)OCO4)cc(OC)c1OC [EPIPODOPHYLLOTOXIN ACETATE]
- IC50 (Human alphaherpesvirus 1 [1]): 440 nM
- IC50 [3]: 220 nM

SMILES: COc1cc([C@@H]2c3cc4c(cc3[C@@H](O)[C@H]3COC(=O)[C@H]23)OCO4)cc(OC)c1OC [EPIPODOPHYLLOTOXIN]
- Activity (Human alphaherpesvirus 1 [2]): 1.6 µM
- selectivity ratio [4]: 15
- Activity [5]: 24 µM

SMILES: COc1cc([C@@H]2c3cc4c(cc3[C@@H](O[C@@H]3O[C@@H]5CO[C@@H](C)O[C@H]5[C@H](O)[C@H]3O)[C@H]3COC(=O)[C@H]23)OCO4)cc(OC)c1O [ETOPOSIDE]
- Activity (Human alphaherpesvirus 1 [2]): 85 µM
- selectivity ratio [4]: 1.2
- Activity [5]: 100 µM

SMILES: COc1cc2c(c(OC)c1OC)-c1c(cc3c(c1OC)OCO3)[C@H](OC(=O)c1ccccc1)[C@@](C)(O)[C@@H](C)C2 [GOMISIN G]
- IC50 [18]: 11 nM

SMILES: COc1cc2c(OC)c3c(c(-c4ccc5c(c4)OCO5)c2cc1OC)C(=O)OC3 [JUSTICIDIN A]
- MIC [15]: 0.65 µM (≈ 0.256 µg/mL)
- Activity [16]: 166 µM

SMILES: COc1cc2c(c(OC)c1OC)-c1c(cc3c(c1OC)OCO3)C[C@@H](C)[C@@H](C)C2 [KADSURANIN]
- IC50 [18]: 2000 nM

SMILES: COCc1cc2cc(OC)c(OC)cc2c(-c2ccc3c(c2)OCO3)c1C=O [PHYLLAMYRICIN B]
- IC50 [19]: 3.5 µM

SMILES: COc1cc([C@@H]2c3cc4c(cc3[C@H](O)[C@H]3COC(=O)[C@H]23)OCO4)cc(OC)c1OC [PODOFILOX]
- IC50 (Human alphaherpesvirus 1 [1]): 50 nM
- inhibition at 0.241 µM (Murid betaherpesvirus 1 [20]): 74%
- inhibition at 0.241 µM (Sindbis virus [21]): 3%
- Activity (Human alphaherpesvirus 1 [2]): 0.024 µM
- IC50 [3]: 100 nM
- selectivity ratio [4]: 6000
- Activity [5]: 140 µM

SMILES: COc1cc2cc3c(c(-c4ccc5c(c4)OCO5)c2cc1OC)COC3=O [RETROJUSTICIDIN B]
- IC50 [19]: 5.5 µM

SMILES: COc1c2c(cc3c1-c1c(cc4c(c1OC)OCO4)C[C@H](C)[C@H](C)C3)OCO2 [SCHISANDRIN C]
- IC50 [18]: 3100 nM

Source: ChEMBL document CHEMBL1151291, “Antiviral activity of lignans” (J Nat Prod, 1998)
